# Measured values: US11084781B2, “Diarylureas as CB1 allosteric modulators” (Research Triangle Institute, priority 2017, dated 2021)
# Entries after “also recorded” stand apart in the source; their conditions may differ.
# Assays:
# human CB1 receptor [1] = biological target: T1, human CB1 receptor (Homo sapiens, UniProt P21554); experiment: CB1 calcium mobilization assay (antagonist mode, against EC80 of CP55,940); assay type: cell-based; details: Table 1; against EC80 (100 nM) of CP55,940; mean ± S.E.M.; read-out: CB1 calcium assay IC50
# T1 construct: host or cells: CHO-RD-HGA16 cells (CHO cells overexpressing promiscuous Galpha16)
# human CB1 receptor [2] = biological target: T1, human CB1 receptor; experiment: CB1 calcium mobilization assay, agonist screen; assay type: cell-based; details: Table 1; 10,000 nM final concentration; mean ± SD
# CB1 receptor = biological target: T2, CB1 receptor (Mus musculus, UniProt P47746); experiment: [35S]GTP-γ-S binding assay in mouse cerebellar membranes, CP55,940-stimulated; assay type: biochemical; details: for IC50: CP55,940 (100 nM) stimulation, mean (95% confidence interval)
# T2 construct: from tissue; host or cells: cerebellar membranes of adult male CD-1 mice
# [3] = Metabolic stability in rat liver microsomes; assay type: in vitro ADME
# Procedure: Metabolic stability assessment was performed by Paraza Pharma Inc. (Montreal, Canada).
# Compounds were incubated with rat liver microsomes at 37° C. for a total of 45 minutes. The reaction was performed at pH 7.4 in 100 mM potassium phosphate buffer containing 0.5 mg/mL of rat liver microsomal protein. Phase I metabolism was assessed by adding NADPH to a final concentration of 1 mM and collecting samples at time points 0, 5, 15, 30 and 45 minutes. All collected samples were quenched 1:1 with ice-cold stop solution (1 μM labetalol and 1 μM glyburide in acetonitrile), and centrifuged to remove precipitated protein. Resulting supernatants were further diluted 1:4 with acetonitrile:water (1:1). Samples were analyzed by LC/MS/MS and calculations for half-life, and in-vitro clearance were accomplished using Microsoft Excel (2007).
# [4] = tested on: cocaine-seeking behavior in rats; experiment: Reinstatement of extinguished cocaine-seeking behavior; assay type: in vivo, rat
# Procedure: Animals: Adult male Sprague-Dawley rats (Harlan, Indianapolis, Ind.) weighing 280-300 g were used in the study. Animals were housed individually on a 12/12 hr light/dark cycle (behavioral experiments were conducted during the light period) with free access to water and food except during experimental sessions. Animals were maintained and experiments conducted in accordance with the Institutional Animal Care and Use Committee, University at Buffalo, and with the 2011 Guide for the Care and Use of Laboratory Animals (Institute of Laboratory Animal Resources on Life Sciences, National Research Council, National Academy of Sciences, Washington D.C.).
# Drug self-administration, extinction and reinstatement: The reinstatement procedure was described in detail elsewhere^37, 38. Briefly, rats were surgically implanted with a chronic indwelling jugular catheter. After one-week recovery, rats were trained to press the active lever (left lever) for infusion of cocaine (0.75 mg/kg/inf) under a fixed ratio [FR] schedule (starting FR=1, which was increased to FR 5 within 5 training sessions) schedule during daily 2-hr sessions for 14 days. Reinforcer deliveries were accompanied by the presentation of a stimulus light over the active lever followed by a 30-s time-out period during which lever presses had no programmed consequence. Following acquisition of cocaine self-administration, extinction of drug-seeking behavior took place during 2-hr daily sessions in which lever pressing produced no consequence. All other conditions remained unchanged. After 7 days of extinction, all rats reached the extinction criteria (total responses less than 20% of the training sessions).
# Drug-induced reinstatement test was conducted on the day following the last extinction session. Rats were pretreated with vehicle, compounds 2 (15, 30 mg/kg) or 34 (10 mg/kg) 10 min prior to a priming injection of cocaine (10 mg/kg, i.p.) administered immediately before the start of the reinstatement session.
# Data analyses: Data are expressed as mean±S.E.M. Differences in active lever responding between the last extinction session and reinstatement session were determined with paired t tests (within subjects comparison). The effects of compounds 2 on reinstatement were analyzed by a one-way analysis of variance (ANOVA) followed by post hoc Bonferroni's test (between subjects comparison). The effects of compounds 34 on reinstatement was analyzed by Student's t test. P<0.05 was considered statistically significant.
# [5] = pretreatment 10 min prior to cocaine prime 10 mg/kg i.p.
# T2 sequence (P47746 whole entry): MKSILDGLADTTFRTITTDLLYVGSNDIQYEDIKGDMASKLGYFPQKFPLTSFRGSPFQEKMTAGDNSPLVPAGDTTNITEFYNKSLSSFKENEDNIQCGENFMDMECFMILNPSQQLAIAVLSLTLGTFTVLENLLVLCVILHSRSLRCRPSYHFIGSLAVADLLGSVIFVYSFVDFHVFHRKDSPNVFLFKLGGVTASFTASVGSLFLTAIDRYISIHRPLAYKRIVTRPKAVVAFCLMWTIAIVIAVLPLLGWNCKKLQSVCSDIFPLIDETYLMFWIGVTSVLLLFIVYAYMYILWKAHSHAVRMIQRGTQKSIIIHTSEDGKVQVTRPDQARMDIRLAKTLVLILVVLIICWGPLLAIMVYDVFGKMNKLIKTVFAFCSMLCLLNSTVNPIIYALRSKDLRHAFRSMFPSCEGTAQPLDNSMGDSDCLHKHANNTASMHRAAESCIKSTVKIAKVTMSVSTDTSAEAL
# T1 sequence (P21554 whole entry): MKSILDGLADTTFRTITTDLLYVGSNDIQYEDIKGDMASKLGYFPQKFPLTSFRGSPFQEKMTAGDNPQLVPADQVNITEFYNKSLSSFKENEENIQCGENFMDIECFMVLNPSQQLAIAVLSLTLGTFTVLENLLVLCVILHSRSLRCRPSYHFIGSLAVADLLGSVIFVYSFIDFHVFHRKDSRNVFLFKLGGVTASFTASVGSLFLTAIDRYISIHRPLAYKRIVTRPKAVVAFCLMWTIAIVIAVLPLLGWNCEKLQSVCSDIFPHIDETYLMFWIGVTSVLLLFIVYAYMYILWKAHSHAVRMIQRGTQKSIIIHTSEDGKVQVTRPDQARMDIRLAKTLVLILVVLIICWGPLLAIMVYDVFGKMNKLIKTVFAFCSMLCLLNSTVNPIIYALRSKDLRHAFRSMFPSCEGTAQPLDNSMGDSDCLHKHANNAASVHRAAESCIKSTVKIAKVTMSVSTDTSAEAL
SMILES,IC50 (human CB1 receptor [1]),"CB1 calcium assay Agonist screen (% CP55, 940 Emax) (human CB1 receptor [2])",IC50 (CB1 receptor),further results
"O=C(Nc1ccc(Cl)cc1)Nc1cccc(-c2ccncc2)c1 [Compound 20, 3-(4-Chlorophenyl)-1-[3-(pyridin-4-yl)phenyl]urea]",178 ± 38 nM,"14.5 ± 2.5 % CP55, 940 Emax",407 nM,"Clearance ([3]; 0.5 mg/mL, NADPH, 37° C., mean ± S.E.M.): 33.1 ± 1.0 µL/min/mg; Increase in metabolic stability relative to B ([3]; half-life vs B): ~3 fold"
"O=C(Nc1ccc(Cl)cc1)Nc1cccc(-c2cc(Cl)cc(Cl)c2)c1 [Compound 31, 3-(4-Chlorophenyl)-1-[3-(3,5-dichlorophenyl)phenyl]urea]",22 ± 2 nM,"15.5 ± 2.4 % CP55, 940 Emax",299 nM,–
"O=C(Nc1ccc(Cl)cc1)Nc1cccc(-c2ccc(Cl)c(Cl)c2)c1 [Compound 32, 3-(4-Chlorophenyl)-1-[3-(3,4-dichlorophenyl)phenyl]urea]",30 ± 4 nM,"10.4 ± 2.1 % CP55, 940 Emax",464 nM,–
"O=C(Nc1ccc(Cl)cc1)Nc1cccc(-c2ccc(F)cc2)c1 [Compound 34, 3-(4-Chlorophenyl)-1-[3-(4-fluorophenyl)phenyl]urea]",23 ± 2 nM,"8.8 ± 1.1 % CP55, 940 Emax",151 nM,"half-life ([3]; pH 7.4, 0.5 mg/mL, NADPH, 37° C., mean ± S.E.M.): > 5 h; microsomal CLint ([3]; pH 7.4, 0.5 mg/mL, NADPH, 37° C., mean ± S.E.M., read-out: Clearance): < 4.6 µL/min/mg; Attenuation of cocaine-induced reinstatement of cocaine-seeking behavior ([4]; dose 10 mg/kg, cocaine prime 10 mg/kg i.p.): produced the same degree of attenuation as that of 30 mg/kg of B; Attenuation of cocaine-induced reinstatement of cocaine-seeking behavior [4, 5]: attenuated the resumption of extinguished cocaine-seeking behavior"
"O=C(Nc1ccc(Cl)cc1)Nc1cccc(-c2cccc(-c3ccccc3)c2)c1 [Compound 38, 3-(4-Chlorophenyl)-1-[3-(3-phenylphenyl)phenyl]urea]",195 ± 40 nM,"0.5 ± 0.2 % CP55, 940 Emax",559 nM,–
"O=C(Nc1ccc(Cl)cc1)Nc1cccc(-c2ccc3occc3c2)c1 [Compound 41, 1-[3-(1-Benzofuran-5-yl)phenyl]-3-(4-chlorophenyl)urea]",134 ± 13 nM,"0.2 ± 1.0 % CP55, 940 Emax",265 nM,–
"O=C(Nc1ccc(Cl)cc1)Nc1cccc(-c2cnc3ccccc3c2)c1 [Compound 44, 3-(4-Chlorophenyl)-1-[3-(quinolin-3-yl)phenyl]urea]",516 ± 70 nM,"2.6 ± 1.2 % CP55, 940 Emax",651 nM,–
"O=C(Nc1ccc(Cl)cc1)Nc1cccc(-c2cccs2)c1 [Compound 48, 3-(4-Chlorophenyl)-1-[3-(thiophen-2-yl)phenyl]urea]",67 ± 6 nM,"12.8 ± 1.8 % CP55, 940 Emax",573 nM,–
"Cc1ccc(-c2cccc(NC(=O)Nc3ccc(Cl)cc3)c2)s1 [Compound 50, 3-(4-Chlorophenyl)-1-[3-(5-methylthiophen-2-yl)phenyl]urea]",42 ± 6 nM,"4.6 ± 1.4 % CP55, 940 Emax",372 nM,–
"O=C(Nc1ccc(Cl)cc1)Nc1cccc(-c2cncs2)c1 [Compound 51, 3-(4-Chlorophenyl)-1-[3-(1,3-thiazol-5-yl)phenyl]urea]",94 ± 9 nM,"8.1 ± 3.1 % CP55, 940 Emax",331 nM,–
"O=C(Nc1ccc(Cl)cc1)Nc1cccc(-c2nccs2)c1 [Compound 53, 3-(4-Chlorophenyl)-1-[3-(1,3-thiazol-2-yl)phenyl]urea]",154 ± 14 nM,"20.1 ± 1.1 % CP55, 940 Emax",1260 nM,–
"O=C(Nc1ccc(Cl)cc1)Nc1cccc(-c2ccc[nH]2)c1 [Compound 65, 3-(4-Chlorophenyl)-1-[3-(1H-pyrrol-2-yl)phenyl]urea]",169 ± 34 nM,"13.7 ± 0.1 % CP55, 940 Emax",40 nM,–
"O=C(Nc1ccc(Cl)cc1)Nc1cccc(-c2ncc[nH]2)c1 [Compound 72, 3-(4-Chlorophenyl)-1-[3-(1H-imidazol-2-yl)phenyl]urea]",529 ± 98 nM,"4.3 ± 0.5 % CP55, 940 Emax",343 nM,–

# Now from value to compound, other results behind:
IC50 (human CB1 receptor [1]),"CB1 calcium assay Agonist screen (% CP55, 940 Emax) (human CB1 receptor [2])",IC50 (CB1 receptor),SMILES,further results
36 ± 1 nM,"28.9 ± 0.6 % CP55, 940 Emax",164 nM,"O=C(Nc1ccc(Cl)cc1)Nc1cccc(-c2ccsc2)c1 [Compound 47, 3-(4-Chlorophenyl)-1-[3-(thiophen-3-yl)phenyl]urea]",–
40 ± 4 nM,"3.7 ± 1.7 % CP55, 940 Emax",776 nM,"Cc1cc(-c2cccc(NC(=O)Nc3ccc(Cl)cc3)c2)cs1 [Compound 49, 3-(4-Chlorophenyl)-1-[3-(5-methylthiophen-3-yl)phenyl]urea]",–
84 ± 6 nM,"8.6 ± 4.4 % CP55, 940 Emax",250 nM,"O=C(Nc1ccc(Cl)cc1)Nc1cccc(-c2cscn2)c1 [Compound 52, 3-(4-Chlorophenyl)-1-[3-(1,3-thiazol-4-yl)phenyl]urea]",–
165 ± 14 nM,"3.4 ± 2.9 % CP55, 940 Emax",665 nM,"Cn1cccc1-c1cccc(NC(=O)Nc2ccc(Cl)cc2)c1 [Compound 68, 3-(4-Chlorophenyl)-1-[3-(1-methyl-1H-pyrrol-2-yl)phenyl]urea]",–
792 ± 43 nM,"28.8 ± 0.2 % CP55, 940 Emax",> 10000 nM,"O=C(Nc1ccc(Cl)cc1)Nc1cccc(N2CC3(COC3)C2)c1 [Compound 84, 3-(4-Chlorophenyl)-1-(3-{2-oxa-6-azaspiro[3.3]heptan-6-yl}phenyl)urea]",–
–,"28.2 ± 4.8 % CP55, 940 Emax",102 nM,"O=C(Nc1ccc(Cl)cc1)Nc1cccc(-c2cccc(N3CCCC3)n2)c1 [Compound B, 1-(4-Chlorophenyl)-3-{3-[6-(pyrrolidin-1-yl)pyridin-2-yl]phenyl}urea, reference compound]","Effect on [35S]GTP-γ-S binding level (CB1 receptor; CP55,940 as agonist probe): dose-dependently decreased; Attenuation of cocaine-induced reinstatement of cocaine-seeking behavior ([4]; dose 30 mg/kg, cocaine prime 10 mg/kg i.p.): significantly reduced cocaine-induced reinstatement behavior; Attenuation of cocaine-induced reinstatement of cocaine-seeking behavior [4, 5]: dose-dependently attenuated; also recorded: attenuated the resumption of extinguished cocaine-seeking behavior"
